Measurements reported in US10765114B2, “4-amino-6-(pyridyl and 2-substitutedphenyl)-picolinates and 6-amino-2-(pyridyl and 2-substitutedphenyl)-pyrimidine-4-carboxylates and their use as herbicides” (Dow AgroSciences LLC, priority 2013, dated 2020).
Like-named read-outs stand apart in the source and are kept apart here.

Assays:
[1] = system: Key Grass and Sedge Weeds as well as Grass Crops; assay: Post-Emergent Test II (Table 6); format: in vivo; conditions: for Visual Growth Reduction (%) 14 Days After Application, CYPSS: CYPSS (CYPES: yellow nutsedge, Cyperus esculentus); for Visual Growth Reduction (%) 14 Days After Application, DIGSA: DIGSA: crabgrass (Digitaria sanguinalis); for Visual Growth Reduction (%) 14 Days After Application, ECHSS: ECHSS (ECHCG: barnyardgrass, Echinochloa crus-galli); for Visual Growth Reduction (%) 14 Days After Application, ORYSS: ORYSS (ORYSA: rice, Oryza sativa); for Visual Growth Reduction (%) 14 Days After Application, ORYSS / Visual Growth Reduction (%) 14 Days After Application, TRZSS / Visual Growth Reduction (%) 14 Days After Application, ZEAMX: crop; for Visual Growth Reduction (%) 14 Days After Application, SETFA: SETFA: giant foxtail (Setaria faberi); for Visual Growth Reduction (%) 14 Days After Application, SORVU: SORVU: johnsongrass (Sorghum vulgare); for Visual Growth Reduction (%) 14 Days After Application, TRZSS: TRZSS (TRZAS: wheat, spring, Triticum aestivum); for Visual Growth Reduction (%) 14 Days After Application, ZEAMX: ZEAMX: maize, corn (Zea mays)
Method: (§1) Seeds or nutlets of the desired test plant species were planted in Sun Gro Metro-Mix® 360 planting mixture, which typically has a pH of 6.0 to 6.8 and an organic matter content of about 30 percent, in plastic pots with a surface area of 64 square centimeters. When required to ensure good germination and healthy plants, a fungicide treatment and/or other chemical or physical treatment was applied. The plants were grown for 7-21 days in a greenhouse with an approximate 15 h photoperiod which was maintained at about 23-29° C. during the day and 22-28° C. during the night. Nutrients and water were added on a regular basis and supplemental lighting was provided with overhead metal halide 1000-Watt lamps as necessary. The plants were employed for testing when they reached the first or second true leaf stage.
(§2) A weighed amount, determined by the highest rate to be tested, of each test compound was placed in a 25 mL glass vial and was dissolved in 4 mL of a 97:3 v/v mixture of acetone and DMSO to obtain concentrated stock solutions. […] The concentrated stock solutions obtained were diluted with 20 mL of an aqueous mixture containing acetone, water, isopropyl alcohol, DMSO, Atplus 411F crop oil concentrate, and Triton® X-155 surfactant in a 48.5:39:10:1.5:1.0:0.02 v/v ratio to obtain spray solutions containing the highest application rates. Additional application rates were obtained by serial dilution of 12 mL of the high rate solution into a solution containing 2 mL of 97:3 v/v mixture of acetone and DMSO and 10 mL of an aqueous mixture containing acetone, water, isopropyl alcohol, DMSO, Atplus 411F crop oil concentrate, and Triton X-155 surfactant in a 48.5:39:10:1.5:1.0:0.02 v/v ratio to obtain ½×, ¼×, ⅛× and 1/16× rates of the high rate. Compound requirements are based upon a 12 mL application volume at a rate of 187 liters per hectare (L/ha). Formulated compounds were applied to the plant material with an overhead Mandel track sprayer equipped with 8002E nozzles calibrated to deliver 187 L/ha over an application area of 0.503 square meters at a spray height of 18 inches (43 cm) above the average plant canopy height. Control plants were sprayed in the same manner with the solvent blank.
(§3) The treated plants and control plants were placed in a greenhouse as described above and watered by subirrigation to prevent wash-off of the test compounds. After 14 days, the condition of the test plants as compared with that of the untreated plants was determined visually and scored on a scale of 0 to 100 percent where 0 corresponds to no injury and 100 corresponds to complete kill and presented as indicated in Table A. Some of the compounds tested, application rates employed, plant species tested, and results are given in Table 5.

[2] = system: Key Broadleaf Weed and Crop Species; assay: Post-Emergent Test II (Table 5); format: in vivo; conditions: post-emergence, 336 h; for pest or weed control at 70 g/ha: application rate 70 (kg ai/ha; footnote: g ai/ha); for pest or weed control at 140 g/ha: application rate 140 (kg ai/ha; footnote: g ai/ha)
Method: as §1, §2, §3

[3] = Abutilon theophrasti, ABUTH: velvetleaf (Abutilon theophrasti), read-out: Visual Growth Reduction (%) 14 Days After Application ABUTH
[4] = Amaranthus retroflexus, AMARE: redroot pigweed (Amaranthus retroflexus), read-out: Visual Growth Reduction (%) 14 Days After Application AMARE
[5] = Brassica napus, BRSSS: oilseed rape, canola (Brassica napus), read-out: Visual Growth Reduction (%) 14 Days After Application BRSSS
[6] = Chenopodium album, CHEAL: lambsquarters (Chenopodium album), read-out: Visual Growth Reduction (%) 14 Days After Application CHEAL
[7] = Euphorbia heterophylla, EPHHL: wild poinsettia (Euphorbia heterophylla), read-out: Visual Growth Reduction (%) 14 Days After Application EPHHL
[8] = Helianthus annuus, HELAN: sunflower (Helianthus annuus), read-out: Visual Growth Reduction (%) 14 Days After Application HELAN
[9] = Viola tricolor, VIOTR: wild pansy (Viola tricolor), read-out: Visual Growth Reduction (%) 14 Days After Application VIOTR

Nc1c(F)c(-c2ccc(Cl)c(F)c2Cl)nc(C(=O)O)c1Cl [Compound 16, 4-Amino-3-chloro-6-(2,4-dichloro-3-fluorophenyl)-5-fluoropicolinic acid]
95 to 100%: pest or weed control at 140 g/ha [2, 3] | pest or weed control at 70 g/ha [2, 4] | pest or weed control at 140 g/ha [2, 4] | pest or weed control at 70 g/ha [2, 5] | pest or weed control at 140 g/ha [2, 5] | pest or weed control at 70 g/ha [2, 6] | pest or weed control at 140 g/ha [2, 6] | pest or weed control at 140 g/ha [2, 7] | pest or weed control at 70 g/ha [2, 8] | pest or weed control at 140 g/ha [2, 8] | pest or weed control at 70 g/ha [2, 9] | pest or weed control at 140 g/ha [2, 9]
B (85-94): Visual Growth Reduction (%) 14 Days After Application, CYPSS ([1]; 140 g ai/ha) | Visual Growth Reduction (%) 14 Days After Application, DIGSA ([1]; 140 g ai/ha) | Visual Growth Reduction (%) 14 Days After Application, ECHSS ([1]; 70 g ai/ha) | Visual Growth Reduction (%) 14 Days After Application, SORVU ([1]; 140 g ai/ha) | Visual Growth Reduction (%) 14 Days After Application, TRZSS ([1]; 70 g ai/ha) | Visual Growth Reduction (%) 14 Days After Application, TRZSS ([1]; 140 g ai/ha) | Visual Growth Reduction (%) 14 Days After Application, ZEAMX ([1]; 70 g ai/ha) | Visual Growth Reduction (%) 14 Days After Application, ZEAMX ([1]; 140 g ai/ha)
C (75-84): Visual Growth Reduction (%) 14 Days After Application, DIGSA ([1]; 70 g ai/ha) | Visual Growth Reduction (%) 14 Days After Application, SORVU ([1]; 70 g ai/ha)
A (95-100): Visual Growth Reduction (%) 14 Days After Application, CYPSS ([1]; 70 g ai/ha) | Visual Growth Reduction (%) 14 Days After Application, ECHSS ([1]; 140 g ai/ha) | Visual Growth Reduction (%) 14 Days After Application, SETFA ([1]; 70 g ai/ha) | Visual Growth Reduction (%) 14 Days After Application, SETFA ([1]; 140 g ai/ha)
F (30-44): Visual Growth Reduction (%) 14 Days After Application, ORYSS ([1]; 70 g ai/ha)
E (45-59): Visual Growth Reduction (%) 14 Days After Application, ORYSS ([1]; 140 g ai/ha)
85 to 94%: pest or weed control at 70 g/ha [2, 3] | pest or weed control at 70 g/ha [2, 7]
